Measurements: ChEMBL document CHEMBL1156588, “Structure-activity relationships of chiral selective norepinephrine reuptake inhibitors (sNRI) with increased oxidative stability” (Bioorg Med Chem Lett, 2008)

Assay: Terminal half life in human
Assay type: ADME, organism-based
Details: in vivo

SMILES	half-life [h]
CNCC[C@@H](Oc1ccccc1C)c1ccccc1 [ATOMOXETINE]	3

Assay: in vitro
Details: human, liver microsomes

SMILES	CLint scaled at 1 h, 1 µM [mL/min/kg]
CNC[C@@H]1OCc2ccccc2[C@@H]1Oc1cccc(F)c1C	21
CNC[C@@H]1OCc2ccccc2[C@@H]1Oc1ccccc1Cl	8
CNC[C@@H]1COc2ccccc2[C@@H]1Oc1ccccc1Cl	9
CNC[C@@H]1OCc2ccccc2[C@@H]1Oc1c(F)cccc1C(F)(F)F	≤ 3
CNC[C@@H]1OCc2ccccc2[C@@H]1Oc1c(C)cccc1F	≤ 3
CNC[C@@H]1OCc2ccccc2[C@@H]1Oc1ccc(O)cc1C	4
CCc1ccccc1O[C@H]1c2ccccc2OC[C@H]1CNC	≤ 3
CNC[C@@H]1OCc2ccccc2[C@@H]1Oc1ccccc1C(F)(F)F	10
CNCC[C@@H](Oc1ccccc1C)c1ccccc1 [ATOMOXETINE]	50
